Test results as given in US20230340011A1 (Asteroid Therapeutics, priority 2022, published 2023).
pEC50, pIC50: −log10 of the molar value. Like-named read-outs stand apart in the source and are kept apart here.

Legend:
SREBP-2 = SREBP-2 (Homo sapiens (Human), UniProt Q12772); assay: In vitro assay SREBP-2: PathHunter U2OS SREBP-2 Nuclear Translocation Cell Line, U18666A-stimulated; assay type: cell-based
LXRβ = LXRβ (Homo sapiens (Human), UniProt P55055); assay: In vitro assay LXRβ: PathHunter NHR CHO cells, LXRβ / Steroid Receptor Co-activator Peptide enzyme fragment complementation; assay type: cell-based
Method in brief: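 Co-activator recruitment measured by chemiluminescence after signal generation. The CHO line carries full-length human LXRβ tagged with ProLink and an SRCP–enzyme acceptor fusion in the nucleus; cells sat overnight at 37° C before testing, in charcoal-dextran filtered serum medium with 1% final vehicle.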

[1] = PathHunter NHR CHO cells, full-length human LXRβ and SRCP, chemiluminescent signal, read-out: LXRβ PPI
[2] = PathHunter U2OS SREBP-2 nuclear translocation cells, U18666A 10 μM, overnight (16 hours)

Chain of LXRβ (P55055 whole entry, the tested form may be a part): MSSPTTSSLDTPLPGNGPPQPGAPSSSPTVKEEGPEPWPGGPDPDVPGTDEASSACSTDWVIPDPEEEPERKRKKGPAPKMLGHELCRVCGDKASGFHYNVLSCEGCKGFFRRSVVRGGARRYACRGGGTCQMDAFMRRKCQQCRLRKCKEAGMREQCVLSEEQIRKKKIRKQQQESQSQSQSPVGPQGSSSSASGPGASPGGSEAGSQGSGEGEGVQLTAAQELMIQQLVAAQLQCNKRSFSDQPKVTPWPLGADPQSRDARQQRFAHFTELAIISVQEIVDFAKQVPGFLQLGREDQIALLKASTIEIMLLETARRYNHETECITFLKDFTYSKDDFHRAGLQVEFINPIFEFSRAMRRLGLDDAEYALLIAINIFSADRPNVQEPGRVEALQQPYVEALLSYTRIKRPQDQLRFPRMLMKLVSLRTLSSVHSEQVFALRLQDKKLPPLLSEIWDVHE

SMILES	pIC50 (SREBP-2)	pEC50 (LXRβ; [1])	pIC50 (SREBP-2; [2])	pEC50 (LXRβ)
C[C@H](CCC(=O)N1CCN(C(=O)N(C)C2CC2)CC1)[C@H]1CC[C@H]2[C@@H]3CC=C4C[C@@H](O)CC[C@]4(C)[C@H]3CC[C@]12C [Example 211, N-cyclopropyl-4-((R)-4-((3S,8S,9S,10R,13R,14S,17R)-3-hydroxy-10,13-dimethyl-2,3,4,7,8,9,10,11,12,13,14,15,16,17-tetradecahydro-1H-cyclopenta[a]phenanthren-17-yl)pentanoyl)-N-methylpiperazine-1-carboxamide]	> 6.60	< 5.00		
CCN(CC)C(=O)N1CCN(C(=O)CC[C@@H](C)[C@H]2CC[C@H]3[C@@H]4CC=C5C[C@@H](O)CC[C@]5(C)[C@H]4CC[C@]23C)CC1 [Example 212, N,N-diethyl-4-((R)-4-((3S,8S,9S,10R,13R,14S,17R)-3-hydroxy-10,13-dimethyl-2,3,4,7,8,9,10,11,12,13,14,15,16,17-tetradecahydro-1H-cyclopenta[a]phenanthren-17-yl)pentanoyl)piperazine-1-carboxamide]		< 5.00	> 6.60	
CCN(C)C(=O)N1CCN(C(=O)CC[C@@H](C)[C@H]2CC[C@H]3[C@@H]4CC=C5C[C@@H](O)CC[C@]5(C)[C@H]4CC[C@]23C)CC1 [Example 213, N-ethyl-4-((R)-4-((3S,8S,9S,10R,13R,14S,17R)-3-hydroxy-10,13-dimethyl-2,3,4,7,8,9,10,11,12,13,14,15,16,17-tetradecahydro-1H-cyclopenta[a]phenanthren-17-yl)pentanoyl)-N-methylpiperazine-1-carboxamide]		< 5.00	> 6.60	
C[C@H](CCC(=O)N1CCC(CNC(=O)C(C)(C)O)CC1)[C@H]1CC[C@H]2[C@@H]3CC=C4C[C@@H](O)CC[C@]4(C)[C@H]3CC[C@]12C [Example 228, 2-hydroxy-N-((1-((R)-4-((3S,8S,9S,10R,13R,14S,17R)-3-hydroxy-10,13-dimethyl-2,3,4,7,8,9,10,11,12,13,14,15,16,17-tetradecahydro-1H-cyclopenta[a]phenanthren-17-yl)pentanoyl)piperidin-4-yl)methyl)-2-methylpropanamide]		< 5.00	> 6.60	
COC(=O)N1CCN(C(=O)NC[C@@H](C)[C@H]2CC[C@H]3[C@@H]4CC=C5C[C@@H](O)CC[C@]5(C)[C@H]4CC[C@]23C)CC1 [Example 236, Methyl 4-(((S)-2-((3S,8S,9S,10R,13S,14S,17R)-3-hydroxy-10,13-dimethyl-2,3,4,7,8,9,10,11,12,13,14,15,16,17-tetradecahydro-1H-cyclopenta[a]phenanthren-17-yl)propyl)carbamoyl)piperazine-1-carboxylate]		< 5.00	> 6.60	
CC(=N)N1CCN(C(=O)CC[C@@H](C)[C@H]2CC[C@H]3[C@@H]4CC=C5C[C@@H](O)CC[C@]5(C)[C@H]4CC[C@]23C)CC1 [Example 245, (R)-4-((3S,8S,9S,10R,13R,14S,17R)-3-hydroxy-10,13-dimethyl-2,3,4,7,8,9,10,11,12,13,14,15,16,17-tetradecahydro-1H-cyclopenta[a]phenanthren-17-yl)-1-(4-(1-iminoethyl)piperazin-1-yl)pentan-1-one]		< 5.00	6.00 to 6.60	
C[C@H](CCc1ncccc1OCCO)[C@H]1CC[C@H]2[C@@H]3CC=C4C[C@@H](O)CC[C@]4(C)[C@H]3CC[C@]12C [Example 246]		6.00 to 6.60	> 6.60	
CCOc1cccnc1CC[C@@H](C)[C@H]1CC[C@H]2[C@@H]3CC=C4C[C@@H](O)CC[C@]4(C)[C@H]3CC[C@]12C [Example 247, (1R,3aS,3bS,7S,9aR,9bS,11aR)-1-[(2R)-4-(3-ethoxypyridin-2-yl)butan-2-yl]-9a,11a-dimethyl-1H,2H,3H,3aH,3bH,4H,6H,7H,8H,9H,9aH,9bH,10H,11H,11aH-cyclopenta[a]phenanthren-7-ol]		6.00 to 6.60	> 6.60	
C[C@H](CCc1ncccc1C(C)(C)O)[C@H]1CC[C@H]2[C@@H]3CC=C4C[C@@H](O)CC[C@]4(C)[C@H]3CC[C@]12C [Example 248, (3S,8S,9S,10R,13R,14S,17R)-17-((R)-4-(3-(2-hydroxypropan-2-yl)pyridin-2-yl)butan-2-yl)-10,13-dimethyl-2,3,4,7,8,9,10,11,12,13,14,15,16,17-tetradecahydro-1H-cyclopenta[a]phenanthren-3-ol]			> 6.60	> 6.60
CC(O)c1cccnc1CC[C@@H](C)[C@H]1CC[C@H]2[C@@H]3CC=C4C[C@@H](O)CC[C@]4(C)[C@H]3CC[C@]12C (stereo partly drawn) [Example 249, (3S,8S,9S,10R,13R,14S,17R)-17-((2R)-4-(3-(1-hydroxyethyl)pyridin-2-yl)butan-2-yl)-10,13-dimethyl-2,3,4,7,8,9,10,11,12,13,14,15,16,17-tetradecahydro-1H-cyclopenta[a]phenanthren-3-ol]		> 6.60	> 6.60	
C[C@H](CCc1ncccc1CO)[C@H]1CC[C@H]2[C@@H]3CC=C4C[C@@H](O)CC[C@]4(C)[C@H]3CC[C@]12C [Example 250, (3S,8S,9S,10R,13R,14S,17R)-17-((R)-4-(3-(hydroxymethyl)pyridin-2-yl)butan-2-yl)-10,13-dimethyl-2,3,4,7,8,9,10,11,12,13,14,15,16,17-tetradecahydro-1H-cyclopenta[a]phenanthren-3-ol]		> 6.60	> 6.60	
CNC(=O)c1cccnc1OC[C@@H](C)[C@H]1CC[C@H]2[C@@H]3CC=C4C[C@@H](O)CC[C@]4(C)[C@H]3CC[C@]12C [Example 253, 2-((S)-2-((3S,8S,9S,10R,13S,14S,17R)-3-hydroxy-10,13-dimethyl-2,3,4,7,8,9,10,11,12,13,14,15,16,17-tetradecahydro-1H-cyclopenta[a]phenanthren-17-yl)propoxy)-N-methylnicotinamide]		< 5.00	> 6.60	
CNC(=O)c1ccc(OC[C@@H](C)[C@H]2CC[C@H]3[C@@H]4CC=C5C[C@@H](O)CC[C@]5(C)[C@H]4CC[C@]23C)nc1 [Example 255, 6-((S)-2-((3S,8S,9S,10R,13S,14S,17R)-3-hydroxy-10,13-dimethyl-2,3,4,7,8,9,10,11,12,13,14,15,16,17-tetradecahydro-1H-cyclopenta[a]phenanthren-17-yl)propoxy)-N-methylnicotinamide]		< 5.00	> 6.60	
C[C@H](COc1ncccc1CO)[C@H]1CC[C@H]2[C@@H]3CC=C4C[C@@H](O)CC[C@]4(C)[C@H]3CC[C@]12C [Example 257, (3S,8S,9S,10R,13S,14S,17R)-17-((S)-1-((3-(hydroxymethyl)pyridin-2-yl)oxy)propan-2-yl)-10,13-dimethyl-2,3,4,7,8,9,10,11,12,13,14,15,16,17-tetradecahydro-1H-cyclopenta[a]phenanthren-3-ol]		< 5.00	> 6.60	
C[C@H](COc1cc(CO)ccn1)[C@H]1CC[C@H]2[C@@H]3CC=C4C[C@@H](O)CC[C@]4(C)[C@H]3CC[C@]12C [Example 258, (3S,8S,9S,10R,13S,14S,17R)-17-((S)-1-((4-(hydroxymethyl)pyridin-2-yl)oxy)propan-2-yl)-10,13-dimethyl-2,3,4,7,8,9,10,11,12,13,14,15,16,17-tetradecahydro-1H-cyclopenta[a]phenanthren-3-ol]		< 5.00	> 6.60	
C[C@H](COc1cccc(CO)n1)[C@H]1CC[C@H]2[C@@H]3CC=C4C[C@@H](O)CC[C@]4(C)[C@H]3CC[C@]12C [Example 260, (3S,8S,9S,10R,13S,14S,17R)-17-((S)-1-((6-(hydroxymethyl)pyridin-2-yl)oxy)propan-2-yl)-10,13-dimethyl-2,3,4,7,8,9,10,11,12,13,14,15,16,17-tetradecahydro-1H-cyclopenta[a]phenanthren-3-ol]		< 5.00	> 6.60	
Cc1cccnc1OC[C@@H](C)[C@H]1CC[C@H]2[C@@H]3CC=C4C[C@@H](O)CC[C@]4(C)[C@H]3CC[C@]12C [Example 261, (3S,8S,9S,10R,13S,14S,17R)-10,13-dimethyl-17-((S)-1-((3-methylpyridin-2-yl)oxy)propan-2-yl)-2,3,4,7,8,9,10,11,12,13,14,15,16,17-tetradecahydro-1H-cyclopenta[a]phenanthren-3-ol]		< 5.00	> 6.60	
Cc1cccc(OC[C@@H](C)[C@H]2CC[C@H]3[C@@H]4CC=C5C[C@@H](O)CC[C@]5(C)[C@H]4CC[C@]23C)n1 [Example 264, (1R,3aS,3bS,7S,9aR,9bS,11aS)-9a,11a-dimethyl-1-[(2S)-1-[(6-methylpyridin-2-yl)oxy]propan-2-yl]-1H,2H,3H,3aH,3bH,4H,6H,7H,8H,9H,9aH,9bH,10H,11H,11aH-cyclopenta[a]phenanthren-7-ol]		< 5.00	6.00 to 6.60	
Cc1ncccc1O[C@@H](C)[C@H]1CC[C@H]2[C@@H]3CC=C4C[C@@H](O)CC[C@]4(C)[C@H]3CC[C@]12C [Example 274, (1S,3aS,3bS,7S,9aR,9bS,11aS)-9a,11a-dimethyl-1-[(1S)-1-[(2-methylpyridin-3-yl)oxy]ethyl]-1H,2H,3H,3aH,3bH,4H,6H,7H,8H,9H,9aH,9bH,10H,11H,11aH-cyclopenta[a]phenanthren-7-ol]		< 5.00	6.00 to 6.60	
CC[C@]1(O)CC[C@@]2(C)C(=CC[C@H]3[C@@H]4CC[C@H]([C@H](C)CCC(=O)N5CCN(C(=O)OC)CC5)[C@@]4(C)CC[C@@H]32)C1 [Example 284, methyl 4-[(4R)-4-[(1R,3aS,3bS,7S,9aR,9bS,11aR)-7-ethyl-7-hydroxy-9a,11a-dimethyl-1H,2H,3H,3aH,3bH,4H,6H,7H,8H,9H,9aH,9bH,10H,11H,11aH-cyclopenta[a]phenanthren-1-yl]pentanoyl]piperazine-1-carboxylate]		< 5.00	5.00 to 6.00	
